Laboratory results as given in article PMC10155203 (Molecular Pharmaceutics, 2023).
Converted amounts (≈) assume the structure as drawn. Read-outs that look alike come from different tables or passages of the source.

Legend:
[1] = Study 2: PPI (rabeprazole) interaction clinical study, single oral dose of encorafenib, plasma PK and safety; format: in vivo, human; settings: for Tmax: median (range); for Vd/F: read-out: Vz/F; for CL/F: mean ± SD
Procedure: Both studies were conducted at the Celerion Clinical Research Unit in Lincoln, NE. The trial protocols and informed consent documentation were reviewed and approved by the institutional review boards at the center. These studies were conducted in compliance with the ethical principles originating in or derived from the Declaration of Helsinki and in compliance with all International Council for Harmonization Good Clinical Practice Guideline.
The AEs described were consistent with the known safety profile of encorafenib.
Additionally, participants were instructed not to crush, split, or chew the study drug. […]
The actual sample collection times were used for the PK parameter analysis.
The overall safety profile was characterized by laboratory test abnormalities, physical examination, vital signs, ECGs, and AEs. […] Triplicate ECGs were also measured at the end of the studies or upon early termination.
These were back-transformed to obtain the GMRs and corresponding 90% CIs on the original scale. The ratios were expressed as a percentage relative to the reference treatment.

[2] = PBPK modeling in GastroPlus 9.8 (model parameters and predicted absorption); parameters: species or system human; settings: estimated; increased from GastroPlus default value
Procedure: Simulations were performed using the commercially available PBPK modeling platform GastroPlus 9.8 (Simulations Plus, Inc., Lancaster, CA). Input and final parameters for the model were published by Del Frari et al.[29] […] The fasted, fed, and PPI states were predicted for the encorafenib commercial capsule. All input data for the platform are shown in Table 2 and were based on physicochemical properties of the compound, formulation characteristics and absorption, distribution, metabolism, and excretion properties. […] Related to dissolution, the Johnson model was selected. This model is an extension of the Nernst–Brunner dissolution model and accounts for changing particle radius during dissolution as well as for dissolution of cylindrical particles. […] Gathered information concerning physicochemical and biopharmaceutical properties was obtained in-house. Fasted state physiology in the human GI tract was simulated by selecting the fluid volumes as observed by the magnetic resonance imaging study of Mudie et al.[30] to address biorelevant fluid volumes in the different GI compartments. In the case of the fed state, the stomach transit time was adjusted and optimized to a value of 2.25 h for consistency with the observed PK data, and the physiology was adjusted to fed state conditions (default settings). […]

[3] = human plasma; cited from earlier work
[4] = Physicochemical and biopharmaceutical properties obtained in-house (PBPK input, experimental data)
Procedure: Simulations were performed using the commercially available PBPK modeling platform GastroPlus 9.8 (Simulations Plus, Inc., Lancaster, CA). Input and final parameters for the model were published by Del Frari et al.[29] […] The fasted, fed, and PPI states were predicted for the encorafenib commercial capsule. All input data for the platform are shown in Table 2 and were based on physicochemical properties of the compound, formulation characteristics and absorption, distribution, metabolism, and excretion properties. […] Related to dissolution, the Johnson model was selected. This model is an extension of the Nernst–Brunner dissolution model and accounts for changing particle radius during dissolution as well as for dissolution of cylindrical particles. […] Gathered information concerning physicochemical and biopharmaceutical properties was obtained in-house. Fasted state physiology in the human GI tract was simulated by selecting the fluid volumes as observed by the magnetic resonance imaging study of Mudie et al.[30] to address biorelevant fluid volumes in the different GI compartments. In the case of the fed state, the stomach transit time was adjusted and optimized to a value of 2.25 h for consistency with the observed PK data, and the physiology was adjusted to fed state conditions (default settings). To simulate PPI conditions, the fasted state physiology was selected (magnetic resonance imaging fluid volumes). However, gastric pH was set to a constant value of pH 7 during the simulation instead of the normal gastric pH of 1.3, as used in the fasted state default settings. […] However, the same results were observed even when the gastric pH was adjusted to a value of 4 or 5 (data not shown).[31] Distribution and clearance parameters were adjusted to reflect a 2-compartmental approach based on the average PK profile of the 100 mg dose as administered in the fasted state to healthy participants (average weight, 83 kg).

[5] = cited from earlier work; for median Tmax: humans, single oral dose
[6] = study 2, encorafenib 100 mg + rabeprazole
[7] = study 2, encorafenib 100 mg + rabeprazole vs alone
[8] = study 2, encorafenib 100 mg alone
[9] = study 2, encorafenib 300 mg alone
[10] = single radiolabeled dose of 100 mg

- mean precipitation time [2]: 90000 s
- BCS class behavior ([4]; amorphous drug in the capsule formulation (amorphous solid dispersion)): class 1
- solubility ([4]; aqueous buffer, at pH 6.8, experimental data, read-out: reference solubility (amorphous)): 200 µg/mL (≈ 370 µM)
- amorphous solubility higher than crystalline solubility ([4]; at pH 6.8): 20 fold
- logD ([4]; at pH 6.8, experimental data): 1.8
- solubility ([4]; at pH 6.8, experimental data, read-out: reference solubility (crystalline)): 10 µg/mL (≈ 18.5 µM)
- Biopharmaceutics Classification System (BCS) class ([4]; drug substance): class 2
- logP ([4]; experimental data): 2.59
- particle radius ([4]; experimental data, PBPK input): 5 μm
- pKa ([4]; experimental data, read-out: pKa (acid)): 6.97
- pKa ([4]; experimental data, read-out: pKa (base)): 4.53
SMILES: COC(=O)N[C@@H](C)CNc1nccc(-c2cn(C(C)C)nc2-c2cc(Cl)cc(NS(C)(=O)=O)c2F)n1 [encorafenib, Encorafenib]
- tolerability ([1]; 300 mg dose compared with 100 mg dose, healthy participants): tolerated with more difficulty
- AUC(0-inf) ([1]; human, plasma, oral, 100 mg): 4140 ng·h/mL
- AUC(0-t) ([1]; human, plasma, oral, 100 mg): 4120 ng·h/mL
- Cmax ([1]; human, plasma, oral, 100 mg): 1040 ng/mL
- Tmax ([1]; human, plasma, oral, 100 mg, study 2, encorafenib 100 mg alone, read-out: Tmax): 1.5 h
- Vd/F ([1]; human, plasma, oral, 100 mg): 247 ± 208 L
- half-life ([1]; human, plasma, oral, 100 mg, read-out: t1/2 (converted)): 7.53 ± 7.58 h
- AUC(0-inf) ([1]; human, plasma, oral, 300 mg): 14800 ng·h/mL
- AUC(0-t) ([1]; human, plasma, oral, 300 mg): 14700 ng·h/mL
- Cmax ([1]; human, plasma, oral, 300 mg): 3900 ng/mL
- Tmax ([1]; human, plasma, oral, 300 mg, study 2, encorafenib 300 mg alone, read-out: Tmax): 1.5 h
- Vd/F ([1]; human, plasma, oral, 300 mg): 470 ± 339 L
- half-life ([1]; human, plasma, oral, 300 mg, read-out: t½ (converted)): 15.9 ± 11.6 h
- Tmax ([1]; human, plasma, oral, study 2, encorafenib 100 mg + rabeprazole, read-out: Tmax): 2 h
- changes in vital signs, laboratory values, or ECG measurements ([1]; study 2): No clinically significant changes
- participants reporting feeling hot ([1]; study 2): 53%
- participants reporting flushing ([1]; study 2): 80%
- participants reporting headache ([1]; study 2): 93%
- number of AEs of grade 2/moderate severity ([1]; study 2 (headache, nausea, myalgia)): 3 AEs
- participants reporting AEs [1, 6]: 82%
- mean change in AUCinf with PPI coadministration [1, 7]: < 10%
- mean change in AUClast with PPI coadministration [1, 7]: < 10%
- mean change in Cmax with PPI coadministration [1, 7]: < 10%
- number of AEs reported ([1]; study 2, encorafenib 100 mg + rabeprazole, 11 participants): 23 AEs
- CL/F [1, 6]: 26.31 ± 9.1417 L/h
- participants reporting AEs [1, 8]: 90%
- number of AEs reported ([1]; study 2, encorafenib 100 mg alone, 10 participants): 24 AEs
- CL/F [1, 8]: 25.33 ± 8.0601 L/h
- Tmax [1, 8]: 1.503 (1.01, 2.00) h
- participants reporting AEs [1, 9]: 100%
- number of AEs reported ([1]; study 2, encorafenib 300 mg alone, 15 participants): 106 AEs
- CL/F [1, 9]: 20.59 ± 3.9043 L/h
- participants who discontinued due to an AE ([1]; study 2, of 15 participants): 1 participants
- participants reporting AEs ([1]; study 2, overall): 15 of 15
- in vitro protein binding [3]: 86%
- dose proportionality ([5]; dose range of 50 to 700 mg QD after a single dose): approximately dose proportional
- apparent volume of distribution ([5]; geometric mean (coefficient of variation 70%)): 164 L
- median Tmax ([5]; fasted state): approximately 2 h
- median Tmax ([5]; fed state): ~4 h
- dose absorbed ([5]; oral): at least 86%
- administered dose recovered in feces [5, 10]: 47%
- administered dose recovered in feces unchanged [5, 10]: 5%
- administered dose recovered in urine [5, 10]: 47%
- administered dose recovered in urine unchanged [5, 10]: 2%
